# Laboratory results published in patent US12318373B2, “Methods of treating gastrointestinal stromal tumors” (Deciphera Pharmaceuticals, LLC, priority 2019, dated 2025).
# Tested on: GIST patients
# Assay: Example 3: safety, TEAEs in GIST patients at ≥100 mg daily
# Type: in vivo, human
# Protocol: Grade 3 or 4 treatment-emergent adverse events (TEAEs) in >5% of patients were lipase increased (18%; n=33), anemia (11%; n=20), hypertension (7%; n=13) and abdominal pain (6%; n=11). 13% of patients (n=24) experienced TEAEs leading to study treatment discontinuation, 17% of patients (n=31) experienced TEAEs leading to dose reduction and 49% of patients (n=88) had TEAEs leading to study drug interruption. Table 3 lists TEAEs>10% for GIST patients treated with ≥100 mg of ripretinib daily.
# [1] = 3rd column pair, head not printed (likely all grades)
smiles,measurement,setting,value
CCn1c(=O)c(-c2cc(NC(=O)Nc3ccccc3)c(F)cc2Br)cc2cnc(NC)cc21 [ripretinib],"Fatigue: patients, number",[1],98
same,"Headache: patients, %",[1],(19%)
same,"Headache: patients, number",[1],34
same,"Hypertension: patients, %",[1],(21%)
same,"Hypertension: patients, number",[1],38
same,"Hypokalaemia: patients, %",[1],(15%)
same,"Hypokalaemia: patients, number",[1],26
same,"Hypomagnesaemia: patients, %",[1],(10%)
same,"Hypomagnesaemia: patients, number",[1],18
same,"Hypophosphataemia: patients, %",[1],(14%)
same,"Hypophosphataemia: patients, number",[1],25
same,"Insomnia: patients, %",[1],(12%)
same,"Insomnia: patients, number",[1],21
same,"Lipase increased: patients, %",[1],(29%)
same,"Lipase increased: patients, number",[1],51
same,"Muscle spasms: patients, %",[1],(26%)
same,"Muscle spasms: patients, number",[1],47
same,"Myalgia: patients, %",[1],(44%)
same,"Myalgia: patients, number",[1],79
same,"Nausea: patients, %",[1],(44%)
same,"Nausea: patients, number",[1],78
same,"Pain in extremity: patients, %",[1],(11%)
same,"Pain in extremity: patients, number",[1],19
same,"Palmar-plantar erythrodysaesthesia syndrome: patients, %",[1],(40%)
same,"Palmar-plantar erythrodysaesthesia syndrome: patients, number",[1],72
same,"Pruritus: patients, %",[1],(10%)
same,"Pruritus: patients, number",[1],18
same,"Rash maculo-papular: patients, %",[1],(10%)
same,"Rash maculo-papular: patients, number",[1],18
same,"Rash: patients, %",[1],(15%)
same,"Rash: patients, number",[1],27
same,"Seborrhoeic keratosis: patients, %",[1],(12%)
same,"Seborrhoeic keratosis: patients, number",[1],21
same,"Skin papilloma: patients, %",[1],(10%)
same,"Skin papilloma: patients, number",[1],17
same,"Upper respiratory tract infection: patients, %",[1],(10%)
same,"Upper respiratory tract infection: patients, number",[1],18
same,"Urinary tract infection: patients, %",[1],(11%)
same,"Urinary tract infection: patients, number",[1],20
same,"Vision blurred: patients, %",[1],(10%)
same,"Vision blurred: patients, number",[1],17
same,"Vomiting: patients, %",[1],(25%)
same,"Vomiting: patients, number",[1],44
same,"Weight decreased: patients, %",[1],(29%)
same,"Weight decreased: patients, number",[1],52
same,Tolerability,GIST patients,generally well tolerated
same,"Abdominal pain: patients, number",head not printed (Grade 3/4),11
same,"Actinic keratosis: patients, %",head not printed (Grade 3/4),(0%)
same,"Actinic keratosis: patients, number",head not printed (Grade 3/4),0
same,"Alopecia: patients, %",head not printed (Grade 3/4),(0%)
same,"Alopecia: patients, number",head not printed (Grade 3/4),0
same,"Amylase increased: patients, %",head not printed (Grade 3/4),(1%)
same,"Amylase increased: patients, number",head not printed (Grade 3/4),2
same,"Anemia: patients, number",head not printed (Grade 3/4),20
same,"Arthralgia: patients, %",head not printed (Grade 3/4),(0%)
same,"Arthralgia: patients, number",head not printed (Grade 3/4),0
same,"Back Pain: patients, %",head not printed (Grade 3/4),(1%)
same,"Back Pain: patients, number",head not printed (Grade 3/4),2
same,"Blood bilirubin increase: patients, %",head not printed (Grade 3/4),(3%)
same,"Blood bilirubin increase: patients, number",head not printed (Grade 3/4),5
same,"Blood creatine phosphokinase increased: patients, %",head not printed (Grade 3/4),(3%)
same,"Blood creatine phosphokinase increased: patients, number",head not printed (Grade 3/4),5
same,"Constipation: patients, %",head not printed (Grade 3/4),(0%)
same,"Constipation: patients, number",head not printed (Grade 3/4),0
same,"Cough: patients, %",head not printed (Grade 3/4),(0%)
same,"Cough: patients, number",head not printed (Grade 3/4),0
same,"Decreased appetite: patients, %",head not printed (Grade 3/4),(1%)
same,"Decreased appetite: patients, number",head not printed (Grade 3/4),2
same,"Diarrhea: patients, %",head not printed (Grade 3/4),(2%)
same,"Diarrhea: patients, number",head not printed (Grade 3/4),3
same,"Dizziness: patients, %",head not printed (Grade 3/4),(0%)
same,"Dizziness: patients, number",head not printed (Grade 3/4),0
same,"Dry skin: patients, %",head not printed (Grade 3/4),(0%)
same,"Dry skin: patients, number",head not printed (Grade 3/4),0
same,"Dysgeusia: patients, %",head not printed (Grade 3/4),(0%)
same,"Dysgeusia: patients, number",head not printed (Grade 3/4),0
same,"Dyspnea: patients, %",head not printed (Grade 3/4),(2%)
same,"Dyspnea: patients, number",head not printed (Grade 3/4),4
same,"Fatigue: patients, %",head not printed (Grade 3/4),(2%)
same,"Fatigue: patients, number",head not printed (Grade 3/4),4
same,"Headache: patients, %",head not printed (Grade 3/4),(1%)
same,"Headache: patients, number",head not printed (Grade 3/4),1
same,"Hypertension: patients, number",head not printed (Grade 3/4),13
same,"Hypokalaemia: patients, %",head not printed (Grade 3/4),(3%)
same,"Hypokalaemia: patients, number",head not printed (Grade 3/4),5
same,"Hypomagnesaemia: patients, %",head not printed (Grade 3/4),(0%)
same,"Hypomagnesaemia: patients, number",head not printed (Grade 3/4),0
same,"Hypophosphataemia: patients, %",head not printed (Grade 3/4),(5%)
same,"Hypophosphataemia: patients, number",head not printed (Grade 3/4),8
same,"Insomnia: patients, %",head not printed (Grade 3/4),(0%)
same,"Insomnia: patients, number",head not printed (Grade 3/4),0
same,"Lipase increased: patients, number",head not printed (Grade 3/4),33
same,"Muscle spasms: patients, %",head not printed (Grade 3/4),(0%)
same,"Muscle spasms: patients, number",head not printed (Grade 3/4),0
same,"Myalgia: patients, %",head not printed (Grade 3/4),(0%)
same,"Myalgia: patients, number",head not printed (Grade 3/4),0
same,"Nausea: patients, %",head not printed (Grade 3/4),(1%)
same,"Nausea: patients, number",head not printed (Grade 3/4),1
same,"Pain in extremity: patients, %",head not printed (Grade 3/4),(1%)
same,"Pain in extremity: patients, number",head not printed (Grade 3/4),1
same,"Palmar-plantar erythrodysaesthesia syndrome: patients, %",head not printed (Grade 3/4),(1%)
same,"Palmar-plantar erythrodysaesthesia syndrome: patients, number",head not printed (Grade 3/4),1
same,"Pruritus: patients, %",head not printed (Grade 3/4),(0%)
same,"Pruritus: patients, number",head not printed (Grade 3/4),0
same,"Rash maculo-papular: patients, %",head not printed (Grade 3/4),(0%)
same,"Rash maculo-papular: patients, number",head not printed (Grade 3/4),0
same,"Rash: patients, %",head not printed (Grade 3/4),(0%)
same,"Rash: patients, number",head not printed (Grade 3/4),0
same,"Seborrhoeic keratosis: patients, %",head not printed (Grade 3/4),(0%)
same,"Seborrhoeic keratosis: patients, number",head not printed (Grade 3/4),0
same,"Skin papilloma: patients, %",head not printed (Grade 3/4),(0%)
same,"Skin papilloma: patients, number",head not printed (Grade 3/4),0
same,"Upper respiratory tract infection: patients, %",head not printed (Grade 3/4),(0%)
same,"Upper respiratory tract infection: patients, number",head not printed (Grade 3/4),0
same,"Urinary tract infection: patients, %",head not printed (Grade 3/4),(2%)
same,"Urinary tract infection: patients, number",head not printed (Grade 3/4),4
same,"Vision blurred: patients, %",head not printed (Grade 3/4),(0%)
same,"Vision blurred: patients, number",head not printed (Grade 3/4),0
same,"Vomiting: patients, %",head not printed (Grade 3/4),(1%)
same,"Vomiting: patients, number",head not printed (Grade 3/4),2
same,"Weight decreased: patients, %",head not printed (Grade 3/4),(1%)
same,"Weight decreased: patients, number",head not printed (Grade 3/4),1
